Here are results for eleven compounds from ChEMBL document CHEMBL3046684, “Molecular docking study on anticancer activity of plant-derived natural products” (Med Chem Res, 2010).

The target in assay [1] is Apoptosis regulator Bcl-2 (Homo sapiens, UniProt P10415). Description: Displacement of NLWAAQRYGRELRRMSD-K(FITC)-FVD from Bcl-2 (unknown origin) by fluorescence polarization assay. (In fluorescence polarisation assays a small probe gives low polarisation when free and higher when bound to something large.)
In assay [2] the target is T1, DNA topoisomerase 2 (Saccharomyces cerevisiae S288c, UniProt P06786).
T1 sequence (P06786 whole entry): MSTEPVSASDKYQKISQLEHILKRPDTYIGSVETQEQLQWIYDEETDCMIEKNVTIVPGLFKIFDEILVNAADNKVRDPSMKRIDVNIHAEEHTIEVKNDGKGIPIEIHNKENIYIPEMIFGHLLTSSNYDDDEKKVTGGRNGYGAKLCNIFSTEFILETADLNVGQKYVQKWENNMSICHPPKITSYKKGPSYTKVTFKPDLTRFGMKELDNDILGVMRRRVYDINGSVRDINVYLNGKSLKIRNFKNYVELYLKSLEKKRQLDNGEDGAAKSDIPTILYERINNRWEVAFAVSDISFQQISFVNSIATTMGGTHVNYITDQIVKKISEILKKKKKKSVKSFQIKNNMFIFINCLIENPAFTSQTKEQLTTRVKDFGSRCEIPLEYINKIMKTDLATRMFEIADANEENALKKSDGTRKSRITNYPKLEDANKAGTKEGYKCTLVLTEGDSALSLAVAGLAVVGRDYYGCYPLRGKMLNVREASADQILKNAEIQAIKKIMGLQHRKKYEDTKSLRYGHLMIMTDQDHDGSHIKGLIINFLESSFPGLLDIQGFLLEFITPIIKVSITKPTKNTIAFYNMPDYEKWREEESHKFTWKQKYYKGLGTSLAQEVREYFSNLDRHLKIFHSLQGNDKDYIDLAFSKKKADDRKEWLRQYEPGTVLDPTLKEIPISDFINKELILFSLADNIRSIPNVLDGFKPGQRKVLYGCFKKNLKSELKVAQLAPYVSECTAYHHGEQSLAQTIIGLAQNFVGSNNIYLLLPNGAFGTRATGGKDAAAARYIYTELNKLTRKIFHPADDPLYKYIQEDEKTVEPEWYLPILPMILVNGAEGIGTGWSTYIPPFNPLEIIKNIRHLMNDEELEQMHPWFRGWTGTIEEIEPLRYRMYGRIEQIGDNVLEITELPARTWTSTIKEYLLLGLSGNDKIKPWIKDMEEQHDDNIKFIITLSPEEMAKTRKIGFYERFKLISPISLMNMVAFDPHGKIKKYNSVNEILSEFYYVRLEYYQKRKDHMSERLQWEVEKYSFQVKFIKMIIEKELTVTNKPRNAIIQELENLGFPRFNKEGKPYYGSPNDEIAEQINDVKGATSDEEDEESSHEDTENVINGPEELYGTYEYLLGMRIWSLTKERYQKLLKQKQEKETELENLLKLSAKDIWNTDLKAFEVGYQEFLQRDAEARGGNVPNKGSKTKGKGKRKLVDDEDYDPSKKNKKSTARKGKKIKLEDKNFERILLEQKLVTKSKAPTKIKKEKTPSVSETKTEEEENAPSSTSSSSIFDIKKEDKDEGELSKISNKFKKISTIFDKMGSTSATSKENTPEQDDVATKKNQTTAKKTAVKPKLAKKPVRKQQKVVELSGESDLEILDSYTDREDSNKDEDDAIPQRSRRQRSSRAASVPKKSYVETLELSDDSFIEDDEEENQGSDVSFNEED
Description: Inhibition of Saccharomyces cerevisiae DNA topoisomerase 2.

The target of assay [3] is T2, DNA topoisomerase 1 (Homo sapiens, UniProt P11387).
T2 sequence (P11387 whole entry): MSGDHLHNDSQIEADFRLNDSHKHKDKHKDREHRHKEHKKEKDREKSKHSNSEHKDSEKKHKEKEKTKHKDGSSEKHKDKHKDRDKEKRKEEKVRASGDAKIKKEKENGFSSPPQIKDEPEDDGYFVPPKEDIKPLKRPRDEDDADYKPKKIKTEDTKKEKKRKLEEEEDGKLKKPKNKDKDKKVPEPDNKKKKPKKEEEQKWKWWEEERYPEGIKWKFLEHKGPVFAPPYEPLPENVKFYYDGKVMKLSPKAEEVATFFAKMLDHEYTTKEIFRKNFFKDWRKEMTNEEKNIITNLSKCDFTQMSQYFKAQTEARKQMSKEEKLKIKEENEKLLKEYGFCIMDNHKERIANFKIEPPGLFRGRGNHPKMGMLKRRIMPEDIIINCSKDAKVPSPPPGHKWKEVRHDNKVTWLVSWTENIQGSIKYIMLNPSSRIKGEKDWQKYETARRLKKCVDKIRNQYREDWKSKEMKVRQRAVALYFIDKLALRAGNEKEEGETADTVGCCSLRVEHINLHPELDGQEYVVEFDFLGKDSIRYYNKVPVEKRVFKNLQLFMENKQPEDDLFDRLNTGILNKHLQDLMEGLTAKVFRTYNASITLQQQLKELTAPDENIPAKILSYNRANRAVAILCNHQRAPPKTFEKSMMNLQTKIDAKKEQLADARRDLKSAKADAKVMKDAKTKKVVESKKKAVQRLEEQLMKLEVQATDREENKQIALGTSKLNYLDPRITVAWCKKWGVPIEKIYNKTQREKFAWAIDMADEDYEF
Description: Inhibition of DNA topoisomerase 1 (unknown origin).

Assay [4] in a line: Binding affinity to Homo sapiens (human) G-quadruplex DNA assessed as formation of VNTR6-1 mutant complex after 2 min by PCR stop assay.
A short description of assay [5]: Binding affinity to Homo sapiens (human) G-quadruplex DNA assessed as formation of G4TER2 mutant complex after 2 min by PCR stop assay.
Assay [6] can be described thus: Binding affinity to Homo sapiens (human) G-quadruplex DNA assessed as formation of G4TER1 mutant complex after 2 min by PCR stop assay.

Chain of Apoptosis regulator Bcl-2 (P10415 whole entry): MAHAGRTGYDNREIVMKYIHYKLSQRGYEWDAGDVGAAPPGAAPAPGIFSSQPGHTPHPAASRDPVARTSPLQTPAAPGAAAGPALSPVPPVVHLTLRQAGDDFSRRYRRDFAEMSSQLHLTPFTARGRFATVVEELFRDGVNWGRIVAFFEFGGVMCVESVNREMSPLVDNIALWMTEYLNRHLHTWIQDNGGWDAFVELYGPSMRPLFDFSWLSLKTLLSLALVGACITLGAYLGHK

`O=C(O[C@@H]1Cc2c(O)cc(O)cc2O[C@@H]1c1cc(O)c(O)c(O)c1)c1cc(O)c(O)c(O)c1` [EPIGALOCATECHIN GALLATE] displayed a Ki in assay [1] of 335 nM. For the same compound, the IC50 in assay [2] came to 3 mM.

Regarding `Oc1cc(O)c2c(c1)O[C@H](c1ccc(O)c(O)c1)[C@H](O)C2` [(-)-EPICATECHIN], the Ki in assay [1] is > 100000 nM.

As for `Oc1cc(O)c2c(c1)O[C@H](c1cc(O)c(O)c(O)c1)[C@H](O)C2` [EPIGALLOCATECHIN], the Ki in assay [1] was > 100000 nM.

The compound `O=c1c(O)c(-c2cc(O)c(O)c(O)c2)oc2cc(O)cc(O)c12` [MYRICETIN] had an IC50 in assay [3] of 37.4 µM.

On to `Oc1cc(O)c2c(c1)O[C@H](c1ccc(O)c(O)c1)[C@@H](O)C2` [CATECHIN], for which the Ki in assay [1] is > 100000 nM.

As for `O=C(O[C@@H]1Cc2c(O)cc(O)cc2O[C@@H]1c1ccc(O)c(O)c1)c1cc(O)c(O)c(O)c1` [EPICATECHIN GALLATE], the Ki in assay [1] is 400 nM.

Take `O=C(O[C@@H]1Cc2c(O)cc(O)cc2O[C@H]1c1ccc(O)c(O)c1)c1cc(O)c(O)c(O)c1` [CATECHIN GALLATE]: the Ki in assay [1] stood at 230 nM.

In assay [1], `O=C(O[C@@H]1Cc2c(O)cc(O)cc2O[C@H]1c1cc(O)c(O)c(O)c1)c1cc(O)c(O)c(O)c1` [GALLOCATECHIN GALLATE] displayed a Ki of 235 nM.

Compound `O=c1c(O)cccc2c([C@H]3Oc4cc(O)cc(O)c4C[C@H]3O)cc(O)c(O)c12` [THEAFLAVANIN] came in with a Ki in assay [1] of 286 nM.

`Oc1cc(O)c2c(c1)O[C@H](c1cc(O)c(O)c(O)c1)[C@@H](O)C2` [GALLOCATECHIN]: in assay [1], the Ki was > 100000 nM.

`Cc1oc2nc1-c1nc(co1)-c1nc(co1)-c1nc(co1)-c1nc(co1)-c1nc(co1)C1=NC(CS1)c1nc-2c(C)o1` (centres undefined) [TELOMESTATIN]: the figures for the IC50 in assay [4], in assay [5] and in assay [6] were 9 µM, 10 µM and 10 µM, respectively.

As a reminder, the Ki is a dissociation constant, usually derived from enzyme kinetics or from competition with a known ligand. For orientation: IC50 means the point on the concentration scale where inhibition reaches its midpoint.
